According to publication PMC4538536, “In Silico-Based High-Throughput Screen for Discovery of Novel Combinations for Tuberculosis Treatment” (Antimicrobial Agents and Chemotherapy, 2015):
≈ marks a conversion by molar mass, not a printed value. Read-outs that look alike come from different tables or passages of the source.

Columns and labels:
M. tuberculosis H37Rv [1] = assay: MIC determination, resazurin-based microplate assay; assay type: cell-based, Mycobacterium tuberculosis; details: single drug
M. tuberculosis H37Rv [2] = assay: In vitro bactericidal-effect analysis (CFU enumeration of checkerboard wells); assay type: cell-based, Mycobacterium tuberculosis; details: single drug at its MIC (FIC of 1); positive = reduction in CFU
Method: For determining the extent of the bactericidal effect, sample wells which remained blue in the resazurin microtiter assay (REMA) and whose ΣFICs were within the synergistic-to-additive range (<0.7 for doublets and <1.5 for triplets) were plated on Middlebrook 7H10 agar medium and incubated at 37°C for 21 to 28 days, following which bacterial colonies were enumerated to obtain the net reduction in CFU in comparison to the counts for the untreated controls at the start of drug testing, as well as to that achieved when M. tuberculosis was exposed to each drug alone.

[3] = In vivo pharmacokinetics in infected mice (plasma, LC-MS/MS); parameters: species or system BALB/c mice; details: BALB/c, mouse, plasma, po, steady state, infected mice
Method: The drugs were formulated in 0.5% hydroxypropyl methyl cellulose (HPMC)–0.1% Tween 80 suspensions as 3- or 4-drug combinations. Formulations were prepared by weighing and adding each compound to the bottle, according to the design. Formulation vehicle was added, and the suspension was stirred overnight. Only uniform suspensions were used, while those that precipitated were abandoned. Formulations were prepared every week, and compound stability was estimated at the end of the week. Pharmacokinetics (PK) analysis was performed on infected mice on the 20th day of dosing. Blood samples were collected from each mouse at 0.5, 2, 4, 6, and 24 h after compound administration. Blood samples of about 30 μl were collected from mice in all groups by serial sampling via the saphenous vein into Microvette CB300 tubes (Starstedt, Germany) coated with EDTA, and plasma (10 μl) was separated following centrifugation. Plasma samples were stored at –20°C until analysis using liquid chromatography-tandem mass spectrometry (LC-MS/MS).
A 1-mg/ml stock solution of each compound was prepared in dimethyl sulfoxide (DMSO) for all of the analytes except PZA and LZD, for which the stock solution was 10 mg/ml in DMSO, and RIF, for which the stock solution was prepared in 50% acetonitrile in water. Three different sets of calibration standard (CS) combinations were prepared by 2-fold dilution of the stock solutions. CS set 1 contained analytes CLO, BDQ, PA824, PZA, and SQ109, CS set 2 contained analytes BTZ043, MXF, THI, EMB, and PZA, and CS set 3 contained LZD, INH, RIF, and PZA. A 16-point calibration curve was utilized for all analytes, and the standard curves ranged from 0.0005 to 20 μg/ml except for PZA and LZD, for which the standard curve range was 0.006 to 200 μg/ml. Plasma samples were precipitated by adding chilled acetonitrile (1:10, vol/vol) containing carbamazepine as an internal standard (10 ng/ml). Samples were vortexed and then centrifuged at 4,000 rpm for 30 min at 10°C. The resulting supernatant was mixed with the mobile phase (50% acetonitrile in water with 0.1% formic acid). Five microliters of the sample was injected on to a liquid chromatographic system (Acquity ultraperformance liquid chromatography [UPLC] system, Waters, Milford, MA) coupled to a triple-quadrupole mass spectrometer (Xevo TQ-S; Waters, Milford, MA). Samples were separated on an LC column (ACE 3 C18, 50 by 4.6 mm, 3 μm particle size; Advanced Chromatography Technologies, Aberdeen, Scotland) by isocratic elution with 40 parts of 20 mM ammonium formate containing 0.1% (vol/vol) formic acid and 60 parts of acetonitrile at a flow rate of 0.5 ml/min with a run time of 4 min. Samples were acquired in positive ion mode and detected by multiple reaction monitoring (MRM). The concentrations of the analyte were determined from a standard curve obtained by plotting known concentrations of the analyte against peak area ratios (analyte/internal standard peak response).
PK analyses of the plasma concentration-time relationships were performed with Phoenix software (version 6.2; Pharsight, USA). A noncompartmental analysis program, model 200, was used to calculate PK parameters. The maximum concentration of drug in plasma (Cmax), time to Cmax (Tmax), elimination half-life (t1/2), and area under the concentration-time curve (AUC) from time zero to infinity (AUC0–∞) were estimated. AUC was computed using the trapezoidal rule (linear up and log down), and the AUC0–∞ was considered only when the extrapolated AUC was not more than 20% of the original value. A minimum of three sample points in the terminal slope were used to calculate half-life.

[4] = 100 mg/kg, Ref. regimen triplet INH 30/RIF 10/EMB 100 mg/kg oral, read-out: AUC0-24 in Triplet
[5] = 100 mg/kg, Ref. regimen triplet INH 30/RIF 10/EMB 100 mg/kg oral, read-out: Cmax in Triplet
[6] = 150 mg/kg, Ref. regimen quartet INH 30/RIF 10/EMB 100/PZA 150 mg/kg oral, read-out: AUC0-24 in Quartet
[7] = 150 mg/kg, Ref. regimen quartet INH 30/RIF 10/EMB 100/PZA 150 mg/kg oral, read-out: Cmax in Quartet
[8] = 150 mg/kg, Group 1 quartet CFZ 20/BDQ 25/PA824 50/PZA 150 mg/kg oral, read-out: AUC0-24 in Quartet
[9] = 150 mg/kg, Group 1 quartet CFZ 20/BDQ 25/PA824 50/PZA 150 mg/kg oral, read-out: Cmax in Quartet

N[C@@H]1CON=C1O [D-Cycloserine]
MIC (M. tuberculosis H37Rv [1]; Mycobacterium tuberculosis): 30.6 µM (≈ 3.12 µg/mL)
ΔLog10 CFU/ml at the MIC (M. tuberculosis H37Rv [2]): 0.87 Log10 CFU/ml

NC[C@H]1O[C@H](O[C@H]2[C@H](O)[C@@H](O[C@H]3O[C@H](CO)[C@@H](O)[C@H](N)[C@H]3O)[C@H](N)C[C@@H]2N)[C@H](O)[C@@H](O)[C@@H]1O [Kanamycin]
MIC (M. tuberculosis H37Rv [1]): 1.61 µM (≈ 0.78 µg/mL)
ΔLog10 CFU/ml at the MIC (M. tuberculosis H37Rv [2]): 0.44 Log10 CFU/ml

CC[C@H]1OC(=O)[C@H](C)[C@@H](O[C@H]2C[C@@](C)(OC)[C@@H](O)[C@H](C)O2)[C@H](C)[C@@H](O[C@@H]2O[C@H](C)C[C@H](N(C)C)[C@H]2O)[C@](C)(OC)C[C@@H](C)C(=O)[C@H](C)[C@@H](O)[C@]1(C)O [Clarithromycin]
MIC (M. tuberculosis H37Rv [1]; Mycobacterium tuberculosis): 9.63 µM (≈ 7.2 µg/mL)
ΔLog10 CFU/ml at the MIC (M. tuberculosis H37Rv [2]): 0.75 Log10 CFU/ml

C[C@H]1COC2(CCN(c3nc(=O)c4cc(C(F)(F)F)cc([N+](=O)[O-])c4s3)CC2)O1 [BTZ043]
AUC(0-t) ([3]; 25 mg/kg, Group 6 triplet BTZ043 37.5/THI 800/SQ109 25 mg/kg oral, read-out: AUC0-24 in Triplet): 15 ± 6.2 µg·h/mL
Cmax ([3]; 25 mg/kg, Group 6 triplet BTZ043 37.5/THI 800/SQ109 25 mg/kg oral, read-out: Cmax in Triplet): 2100 ± 400 ng/mL
AUC(0-t) ([3]; 200 mg/kg, Group 3 triplet BTZ043 37.5/SQ109 25/MXF 200 mg/kg oral, read-out: AUC0-24 in Triplet): 11.1 ± 5 µg·h/mL
Cmax ([3]; 200 mg/kg, Group 3 triplet BTZ043 37.5/SQ109 25/MXF 200 mg/kg oral, read-out: Cmax in Triplet): 2300 ± 900 ng/mL
MIC (M. tuberculosis H37Rv [1]; Mycobacterium tuberculosis): 0.0009 µM (≈ 0.000388 µg/mL)
ΔLog10 CFU/ml at the MIC (M. tuberculosis H37Rv [2]): 1.40 Log10 CFU/ml

NNC(=O)c1ccncc1 [Isoniazid]
AUC(0-t) [3, 4]: 19.8 ± 4.7 µg·h/mL
Cmax [3, 5]: 10800 ± 2900 ng/mL
AUC(0-t) [3, 6]: 12 ± 3.4 µg·h/mL
Cmax [3, 7]: 7000 ± 3200 ng/mL
MIC (M. tuberculosis H37Rv [1]; Mycobacterium tuberculosis): 0.22 µM (≈ 0.0302 µg/mL)
ΔLog10 CFU/ml at the MIC (M. tuberculosis H37Rv [2]): 1.02 Log10 CFU/ml

[H]/N=C(/N)N[C@H]1[C@H](O)[C@@H](O)[C@H](O[C@@H]2O[C@@H](C)[C@](O)(C=O)[C@H]2O[C@@H]2O[C@@H](CO)[C@H](O)[C@@H](O)[C@@H]2NC)[C@@H](N/C(N)=N\[H])[C@@H]1O [Streptomycin]
MIC (M. tuberculosis H37Rv [1]; Mycobacterium tuberculosis): 0.68 µM (≈ 0.395 µg/mL)
ΔLog10 CFU/ml at the MIC (M. tuberculosis H37Rv [2]): 0.36 Log10 CFU/ml

CC(C)/N=c1\cc2n(-c3ccc(Cl)cc3)c3ccccc3nc-2cc1Nc1ccc(Cl)cc1 [Clofazimine]
AUC(0-t) ([3]; 50 mg/kg, Group 1 triplet CFZ 20/BDQ 25/PA824 50 mg/kg oral, read-out: AUC0-24 in Triplet): 42.8 ± 5.4 µg·h/mL
Cmax ([3]; 50 mg/kg, Group 1 triplet CFZ 20/BDQ 25/PA824 50 mg/kg oral, read-out: Cmax in Triplet): 2300 ± 200 ng/mL
AUC(0-t) [3, 8]: 48 ± 5.2 µg·h/mL
Cmax [3, 9]: 2400 ± 200 ng/mL
MIC (M. tuberculosis H37Rv [1]; Mycobacterium tuberculosis): 0.26 µM (≈ 0.123 µg/mL)
ΔLog10 CFU/ml at the MIC (M. tuberculosis H37Rv [2]): 0.72 Log10 CFU/ml

CO[C@H]1/C=C/O[C@@]2(C)Oc3c(C)c(O)c4c(O)c(c(/C=N/N5CCN(C)CC5)c(O)c4c3C2=O)NC(=O)/C(C)=C\C=C\[C@H](C)[C@H](O)[C@@H](C)[C@@H](O)[C@@H](C)[C@H](OC(C)=O)[C@@H]1C [Rifampin]
AUC(0-t) [3, 4]: 25.4 ± 7.3 µg·h/mL
Cmax [3, 5]: 4900 ± 1300 ng/mL
AUC(0-t) [3, 6]: 22.2 ± 8.6 µg·h/mL
Cmax [3, 7]: 5500 ± 3000 ng/mL
MIC (M. tuberculosis H37Rv [1]; Mycobacterium tuberculosis): 0.009 µM (≈ 0.00741 µg/mL)
ΔLog10 CFU/ml at the MIC (M. tuberculosis H37Rv [2]): 1.24 Log10 CFU/ml

C[C@@H](O)[C@H]1C(=O)N2C(C(=O)O)=C(S[C@@H]3CN[C@H](C(=O)N(C)C)C3)[C@H](C)[C@H]12 [Meropenem]
MIC (M. tuberculosis H37Rv [1]; Mycobacterium tuberculosis): 8.15 µM (≈ 3.13 µg/mL)
ΔLog10 CFU/ml at the MIC (M. tuberculosis H37Rv [2]): 0.57 Log10 CFU/ml

NCC[C@H](O)C(=O)N[C@@H]1C[C@H](N)[C@@H](O[C@H]2O[C@H](CN)[C@@H](O)[C@H](O)[C@H]2O)[C@H](O)[C@H]1O[C@H]1O[C@H](CO)[C@@H](O)[C@H](N)[C@H]1O [Amikacin]
MIC (M. tuberculosis H37Rv [1]; Mycobacterium tuberculosis): 0.43 µM (≈ 0.252 µg/mL)
ΔLog10 CFU/ml at the MIC (M. tuberculosis H37Rv [2]): −0.20 Log10 CFU/ml

Capreomycin
MIC (M. tuberculosis H37Rv [1]): 5.91 µM
ΔLog10 CFU/ml at the MIC (M. tuberculosis H37Rv [2]): −0.11 Log10 CFU/ml

NC(=O)c1cnccn1 [Pyrazinamide]
AUC(0-t) [3, 8]: 115 ± 6.5 µg·h/mL
Cmax [3, 9]: 64000 ± 9800 ng/mL
AUC(0-t) ([3]; 150 mg/kg, Group 2 quartet SQ109 25/BDQ 25/PA824 50/PZA 150 mg/kg oral, read-out: AUC0-24 in Quartet): 148 ± 2.1 µg·h/mL
Cmax ([3]; 150 mg/kg, Group 2 quartet SQ109 25/BDQ 25/PA824 50/PZA 150 mg/kg oral, read-out: Cmax in Quartet): 64500 ± 3100 ng/mL
AUC(0-t) ([3]; 150 mg/kg, Group 3 quartet BTZ043 37.5/SQ109 25/MXF 200/PZA 150 mg/kg oral, read-out: AUC0-24 in Quartet): 156 ± 13.2 µg·h/mL
Cmax ([3]; 150 mg/kg, Group 3 quartet BTZ043 37.5/SQ109 25/MXF 200/PZA 150 mg/kg oral, read-out: Cmax in Quartet): 42000 ± 700 ng/mL
AUC(0-t) ([3]; 150 mg/kg, Group 5 quartet EMB 100/BDQ 25/SQ109 25/PZA 150 mg/kg oral, read-out: AUC0-24 in Quartet): 144 ± 29.5 µg·h/mL
Cmax ([3]; 150 mg/kg, Group 5 quartet EMB 100/BDQ 25/SQ109 25/PZA 150 mg/kg oral, read-out: Cmax in Quartet): 67200 ± 2500 ng/mL
AUC(0-t) ([3]; 150 mg/kg, Group 6 quartet BTZ043 37.5/THI 800/SQ109 25/PZA 150 mg/kg oral, read-out: AUC0-24 in Quartet): 154 ± 23.8 µg·h/mL
Cmax ([3]; 150 mg/kg, Group 6 quartet BTZ043 37.5/THI 800/SQ109 25/PZA 150 mg/kg oral, read-out: Cmax in Quartet): 40200 ± 13300 ng/mL
AUC(0-t) ([3]; 150 mg/kg, Group 7 quartet PA824 50/BDQ 25/MXF 400/PZA 150 mg/kg oral, read-out: AUC0-24 in Quartet): 144 ± 16.9 µg·h/mL
Cmax ([3]; 150 mg/kg, Group 7 quartet PA824 50/BDQ 25/MXF 400/PZA 150 mg/kg oral, read-out: Cmax in Quartet): 33200 ± 2300 ng/mL
AUC(0-t) ([3]; 150 mg/kg, Group 8 quartet PA824 50/BDQ 25/EMB 100/PZA 150 mg/kg oral, read-out: AUC0-24 in Quartet): 127 ± 9 µg·h/mL
Cmax ([3]; 150 mg/kg, Group 8 quartet PA824 50/BDQ 25/EMB 100/PZA 150 mg/kg oral, read-out: Cmax in Quartet): 69000 ± 12700 ng/mL
AUC(0-t) ([3]; 150 mg/kg, Group 9 quartet EMB 100/SQ109 25/LZD 130/PZA 150 mg/kg oral, read-out: AUC0-24 in Quartet): 119 ± 7 µg·h/mL
Cmax ([3]; 150 mg/kg, Group 9 quartet EMB 100/SQ109 25/LZD 130/PZA 150 mg/kg oral, read-out: Cmax in Quartet): 39500 ± 4400 ng/mL
AUC(0-t) [3, 6]: 161 ± 18.8 µg·h/mL
Cmax [3, 7]: 69700 ± 9700 ng/mL
